Reference: patent US20070292403A1, “Methods of treating a neurological disorder with creatine monohydrate” (priority 2006, published 2007)

Key:
[1] = Example 1: serum creatine levels and brain creatine by magnetic resonance spectroscopy; format: in vivo, human; conditions: for Increase in absolute creatine concentration by MRS: by week 16, 8 g/day, p<0.05, returned to baseline at week 24
Text: Study protocol. Subjects were screened within 25 days of randomization (baseline visit). Screening included assessment of eligibility criteria, medical history, physical examination, Unified Huntington's Disease Rating Scale (UHDRS), EKG, DNA analysis, complete blood count, chemistry panel, and urinalysis. Subjects were on study drug (creatine or placebo) for 16 weeks, followed by an 8-week washout. Study visits occurred at baseline, weeks 8, 16, and 24 with telephone contacts at weeks 1, 10 and 20. Physical examination was done at screening and week 16. UHDRS scores, vital signs, adverse event assessment, and safety laboratory tests were repeated at all visits. Blood was collected for serum creatine levels and serum 8-hydroxy-2′-deoxyguanosine (8OH2′dG), a measure of oxidative injury affecting DNA. The later was analyzed in the samples from two sites. Magnetic resonance spectroscopy (MRS; STEAM; TR/TE=6000/20 milliseconds) of frontal cortex (voxel size=56 cc) and occipital cortex (voxel size=18 cc) performed at one site was analyzed for this report. Subject compliance was assessed by wafer counts.

[2] = test system: cortical thinning in HD; assay: Example 3: morphometric neuroimaging, rate of cortical thinning; format: in vivo, human; conditions: high dose creatine
Description: High dose creatine slows cortical thinning. Morphometric neuroimaging was performed in all subjects. Longitudinal data from up to three years prior to initiating creatine was available on 6 or the 10 subjects. The rate of thinning of cortical regions in HD was modeled based on the longitudinal data and a change in rate was determined for each region of the group while on creatine. […] Creatine reduced the rate of thinning in almost every region, and the rate of change was statistically significant for several regions and amounted to about a 30% slowing. There was no effect on the rate of caudate volume loss (p=0.67), rate of putamen volume loss, or on total brain volume. The lack of an effect on striatal volumes likely reflects the fact that in these individuals, caudate and putamen volumes were already reduced by more than half and the lack of change in whole brain by the fact that small proportion of the brain is represented by the detected change.

CN(CC(=O)O)C(=N)N [Creatine, creatine monohydrate]
Increase in absolute creatine concentration by MRS ([1]; frontal cortex): 7.5% | concentration at 16 weeks ([1]; human, serum, oral, 8 g/day, week 16, baseline 46.4 (SD=35.7), SD=259.9, read-out: Average serum creatine level): 382 µM | concentration at 24 weeks ([1]; human, serum, oral, at washout after 8 g/day for 16 weeks, SD=29.5, read-out: Average serum creatine level): 51.8 µM | Increase in absolute creatine concentration by MRS ([1]; occipital cortex): 13% | Effect on rate of caudate volume loss, rate of putamen volume loss, total brain volume ([2]; caudate p=0.67): no effect | Slowing of the rate of cortical thinning ([2]; several cortical regions statistically significant, longitudinal data on 6 of 10 subjects): ~30%
